Source: patent publication US20260069696A1, “Combined therapy of photodynamic therapy and immune checkpoint inhibitor” (Shanghai Guang Sheng Pharmaceutical Co., Ltd., priority 2023, published 2026)

Test system: human esophageal cancer Eca-109 nude mouse xenograft tumor
Test: Efficacy of DVDMS-PDT combined with PD-1 antibody in mouse model of human esophageal cancer Eca-109
Assay type: in vivo, nu/nu nude mice
Conditions: Only received DVDMS-PDT, DVDMS 2 mg/kg, laser 70 J/cm2, Day 21
Text: Example 1. Efficacy of combined therapy of sodium porphyrine-mediated photodynamic therapy (DVDMS-PDT) with PD-1 antibody in a mouse model of human esophageal cancer Eca-109
Purpose: observe the growth-inhibiting effect of DVDMS-PDT combined with PD-1 antibody (Pembrolizumab) on human esophageal cancer Eca-109 nude mouse xenograft tumor, optimize the time window between DVDMS-PDT and PD-1 antibody treatment, and provide a reference for clinical application.
Harvest human esophageal cancer Eca-109 cells at logarithmic growth phase and dilute with culture medium to a cell concentration of 5*10^7 cells/mL, and inoculate subcutaneously at the right thigh root of nude mice at an injection of 0.1 mL per nude mouse. And 7-10 days later, grow the subcutaneous tumor at the root of the thigh on the right side of the nude mouse until the diameter is about 5-8 mm for later use.
Select qualified tumor-bearing mouse models as described above, measure the length and the width of the tumors using a vernier caliper, and stratify and group the mice according to tumor size, with 6 mice in each group. Prepare the sodium porphyrine DVDMS-2 for injection 24 hours before the experiment, and refrigerate in the dark before use. Administer DVDMS-2 via tail vein at a dose of 2 mg/kg body weight (Day-1), followed by PDT treatment 24 hours later (Day 0). […]

## C=CC1=C(C)c2cc3[nH]c(cc4nc(cc5[nH]c(cc1n2)c(C)c5C(C)OC(C)C1=C(C)c2cc5[nH]c(cc6nc(cc7[nH]c(cc1n2)c(C)c7CCC(=O)[O-])C(CCC(=O)[O-])=C6C)c(C)c5C=C)C(C)=C4CCC(=O)[O-])c(CCC(=O)[O-])c3C.[Na+].[Na+].[Na+].[Na+] (centres unmarked) [DVDMS-PDT, bis [1-[6,7-sodium dipropionate-1,3,5,8-tetramethyl-2-vinyl-4-porphine]ethyl]ether]
  Tumor growth inhibition rate(%): 66.8%
In g (unit assumed)
  Tumor weight: 0.43 ± 0.58
